# Assay: Rheology Test Method (shear stress at 950 s^−1 via flow curve)
# Type: physicochemical
# Method: 2. Rheology Test Method Rheology is used to evaluate and characterise product samples. The two key rheology methods identified are mentioned below: • Shear Stress at 950 s^−1 via flow curve: This is the method to ramp up shear rate logarithmically from 0.1 to 1000 s^−1 in 1 min using a cone & plate geometry, and to read the shear stress value 6 (Pa) at shear rate 950 s^−1. • Delta in Rheology %: This is the percentage difference in rheology measurement following the formula below: Delta in Rheology %=((a−b)/b)×100% • where a is the post added product and b is the no post added product. If rheology reduction is more than 50%, it would indicate significant interaction with chassis and incompatible.
row,Compound,"rheology reduction / compatibility with formulation, in words"
1,"O=C([O-])c1ccccc1.[Na+] [Sodium benzoate, reference compound]",significant rheology reduction
2,CC(=O)c1ccc(O)cc1 [4-Hydroxyacetophenone],no significant rheology reduction
3,Pentylene Glycol,no significant rheology reduction
4,CCCCCCCC(=O)OCC(O)CO (stereo not shown) [Glyceryl caprylate],no significant rheology reduction

# Source: patent US11969490B2, “Hair conditioning composition with antimicrobial system” (The Procter & Gamble Company, priority 2020, dated 2024)
